Measurements published in patent publication US20240199605A1, “SMALL MOLECULAR INHIBITORS OF NF-kB INDUCING KINASE” (Janssen Pharmaceutica NV, priority 2019, published 2024).
pIC50: −log10 of the molar value. Read-outs that look alike come from different tables or passages of the source.

What was measured:
[1] = target: recombinant human NF-kappaB-inducing kinase (NIK/MAP3K14) (Homo sapiens (Human), UniProt Q99558); test: Inhibition of auto-phosphorylation of recombinant human NIK/MAP3K14 (AlphaScreen); format: biochemical; settings: NIK auto-phosphorylation, 5 μM ATP, 1 nM NIK, 2 h at 25° C.; average of values
Procedure, shortened: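 GST-tagged NIK (1 nM) auto-phosphorylated with 5 μM ATP for 2 h at 25° C. in 50 mM Tris pH 7.5, 5 mM MgCl2, 1 mM EGTA, 1 mM DTT, 0.1 mM Na3VO4, 0.01% Tween 20 (0.7% DMSO). Detected by AlphaScreen via anti-phospho-IKK Ser176/180 antibody; IC50 from sigmoidal fit of % inhibition versus log concentration.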

[2] = tested on: p-IKKα levels in L363 (NIK translocated multiple myeloma) cells; test: Effect of compounds on p-IKKα levels in L363 cells (AlphaLISA SureFire Ultra); format: cell-based, human; settings: BAFF stimulated, MG132, 6 h, average of values, read-out: Assay 2 IC50
Procedure, shortened: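 Inhibition of p-IKKα (Ser176/180) read by AlphaLISA after 6 h, 37 °C compound exposure (11-point 1:3 series, 0.3% DMSO) of L363 cells pre-incubated overnight ± 250 ng/ml BAFF and plated ± BAFF ± 10 μM MG132. Normalised to BAFF/MG132/DMSO and unstimulated controls; IC50 by sigmoidal fitting, duplicates.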

recombinant human NF-kappaB-inducing kinase (NIK/MAP3K14), sequence (Q99558 whole entry): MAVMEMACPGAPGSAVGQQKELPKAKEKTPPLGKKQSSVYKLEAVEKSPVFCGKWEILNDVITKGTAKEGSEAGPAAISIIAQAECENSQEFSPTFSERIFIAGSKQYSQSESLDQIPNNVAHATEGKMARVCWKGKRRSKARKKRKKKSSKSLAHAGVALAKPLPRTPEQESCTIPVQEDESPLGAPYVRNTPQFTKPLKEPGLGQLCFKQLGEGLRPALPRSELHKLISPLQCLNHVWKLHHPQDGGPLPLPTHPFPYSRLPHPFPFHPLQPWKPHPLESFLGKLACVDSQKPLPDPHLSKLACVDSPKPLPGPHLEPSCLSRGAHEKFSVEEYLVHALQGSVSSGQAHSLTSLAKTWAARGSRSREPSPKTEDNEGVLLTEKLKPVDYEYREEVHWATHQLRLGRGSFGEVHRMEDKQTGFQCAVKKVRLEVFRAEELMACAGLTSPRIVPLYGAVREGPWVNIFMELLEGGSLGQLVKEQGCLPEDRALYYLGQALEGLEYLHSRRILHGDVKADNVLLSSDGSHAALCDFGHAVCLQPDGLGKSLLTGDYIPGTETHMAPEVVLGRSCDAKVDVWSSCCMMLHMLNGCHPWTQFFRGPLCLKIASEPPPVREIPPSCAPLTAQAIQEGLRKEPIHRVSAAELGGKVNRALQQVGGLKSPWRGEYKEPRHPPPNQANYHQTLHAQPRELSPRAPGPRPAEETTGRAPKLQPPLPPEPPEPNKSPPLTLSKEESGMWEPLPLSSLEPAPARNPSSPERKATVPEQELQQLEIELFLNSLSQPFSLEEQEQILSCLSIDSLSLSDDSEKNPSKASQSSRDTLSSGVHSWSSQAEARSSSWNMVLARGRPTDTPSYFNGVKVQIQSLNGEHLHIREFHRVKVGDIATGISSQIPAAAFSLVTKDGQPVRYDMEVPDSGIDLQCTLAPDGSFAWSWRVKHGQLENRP

Row | pIC50 [1] | pIC50 ([2]; Homo sapiens, L-363, 6 h) | pIC50 [2] | SMILES
1 | 5.88 | < 5.30 | – | Cc1nc(N)c2nc(-c3cccc(C#C[C@](C)(O)c4ncccn4)c3)ccc2n1 [Example 198, (S)-4-[3-(4-Amino-2-methyl-pyrido[3,2-d]pyrimidin-6-yl)phenyl]-2-pyrimidin-2-yl-but-3-yn-2-ol]
2 | 6.46 | < 5.30 | – | Cc1nc(N)c2nc(-c3cccc(C#C[C@@](C)(O)c4scnc4C)c3)ccc2n1 [Example 163, (R)-4-(3-(4-Amino-2-methylpyrido[3,2-d]pyrimidin-6-yl)phenyl)-2-(4-methylthiazol-5-yl)but-3-yn-2-ol]
3 | ≥ 9.30 | 7.85 | – | CN1CC[C@@](O)(C#Cc2cccc(-c3ncc4c(-c5ccc(C(F)(F)F)nc5)cnc(N)c4n3)c2)C1=O [Example 147, (R)-3-[2-[3-[8-Amino-5-[6-(trifluoromethyl)-3-pyridyl]pyrido[3,4-d]pyrimidin-2-yl]phenyl]ethynyl]-3-hydroxy-1-methyl-pyrrolidin-2-one]
4 | 7.35 | 6.14 | – | Cc1nccc2ccc(-c3cccc(C#C[C@]4(O)CCN(C)C4=O)c3)nc12 [Example 280, (R)-3-Hydroxy-1-methyl-3-((3-(8-methyl-1,7-naphthyridin-2-yl)phenyl)ethynyl)pyrrolidin-2-one]
5 | 6.39 | < 5.30 | – | Cc1csc([C@](C)(O)C#Cc2cccc(-c3ccc4nc(C)nc(N)c4n3)c2)n1 [Example 180, (R)-4-(3-(4-Amino-2-methylpyrido[3,2-d]pyrimidin-6-yl)phenyl)-2-(4-methylthiazol-2-yl)but-3-yn-2-ol]
6 | 9.10 | 8.27 | – | Cc1nc(-c2cccc(C#C[C@]3(O)CCN(C)C3=O)c2)nc2c(N)ncnc12 [Example 4, (R)-3-((3-(8-Amino-4-methylpyrimido[5,4-d]pyrimidin-2-yl)phenyl)ethynyl)-3-hydroxy-1-methylpyrrolidin-2-one]
7 | 6.46 | 5.38 | – | CN1CC[C@](O)(C#Cc2cccc(-c3cc(C4CCOCC4)c4ncnc(N)c4n3)c2)C1=O [Example 256, (S)-3-((3-(4-Amino-8-(tetrahydro-2H-pyran-4-yl)pyrido[3,2-d]pyrimidin-6-yl)phenyl)ethynyl)-3-hydroxy-1-methylpyrrolidin-2-one]
8 | 8.62 | 6.64 | – | CN1CC[C@@](O)(C#Cc2cccc(-c3ccc4nc(C5CC5)nc(N)c4n3)c2)C1=O [Example 175, (R)-3-((3-(4-Amino-2-cyclopropylpyrido[3,2-d]pyrimidin-6-yl)phenyl)ethynyl)-3-hydroxy-1-methylpyrrolidin-2-one]
9 | 7.66 | 6.23 | – | CN1CC[C@@](O)(C#Cc2cccc(-c3ccc4c(n3)c(N)nn4C)c2)C1=O [Example 21, (R)-3-[2-[3-(3-Amino-1-methyl-pyrazolo[4,3-b]pyridin-5-yl)phenyl]ethynyl]-3-hydroxy-1-methyl-pyrrolidin-2-one]
10 | 6.59 | 5.39 | – | CCOc1ncnc2ccc(-c3cccc(C#C[C@]4(O)CCN(C)C4=O)c3)nc12 [Example 24, (R)-3-((3-(4-Ethoxypyrido[3,2-d]pyrimidin-6-yl)phenyl)ethynyl)-3-hydroxy-1-methylpyrrolidin-2-one]
11 | 7.51 | 5.70 | – | Cc1cc([C@](C)(O)C#Cc2ccc(C)c(-c3ncc4ccnc(N)c4n3)c2)no1 [Example 82, (R)-4-(3-(8-Aminopyrido[3,4-d]pyrimidin-2-yl)-4-methylphenyl)-2-(5-methylisoxazol-3-yl)but-3-yn-2-ol]
12 | 8.36 | 6.60 | – | [2H]c1nc(N)c2nc(-c3cccc(C#CC4(O)CCN(CC=C)C4=O)c3)ccc2n1 (racemic) [Example 196, racemic-1-Allyl-3-((3-(4-aminopyrido[3,2-d]pyrimidin-6-yl-2-d)phenyl)ethynyl)-3-hydroxypyrrolidin-2-one]
13 | 8.40 | 6.74 | – | CN1CC[C@@](O)(C#Cc2cccc(-c3ccc4c(CN5CCCC5)cnc(N)c4n3)c2)C1=O [Example 171, (R)-3-[2-[3-[8-Amino-5-(pyrrolidin-1-ylmethyl)-1,7-naphthyridin-2-yl]phenyl]ethynyl]-3-hydroxy-1-methyl-pyrrolidin-2-one]
14 | 9.00 | 6.32 | – | Cc1cc2cnc(-c3cccc(C#C[C@@](C)(O)c4nccs4)c3)nc2c(N)n1 [Example 51, (R)-4-(3-(8-Amino-6-methylpyrido[3,4-d]pyrimidin-2-yl)phenyl)-2-(thiazol-2-yl)but-3-yn-2-ol]
15 | ≥ 9.30 | 8.02 | – | Cc1cnc(N)c2nc(-c3cccc(C#C[C@]4(O)CCN(C)C4=O)c3)nc(C)c12 [Example 138, (R)-3-((3-(8-Amino-4,5-dimethylpyrido[3,4-d]pyrimidin-2-yl)phenyl)ethynyl)-3-hydroxy-1-methylpyrrolidin-2-one]
16 | ≥ 9.30 | 8.57 | – | Nc1ncnc2cnc(-c3cccc(C#C[C@]4(O)CCn5ccnc54)c3)nc12 [Example 146, (R)-7-[2-[3-(4-Aminopyrimido[5,4-d]pyrimidin-6-yl)phenyl]ethynyl]-5,6-dihydropyrrolo[1,2-a]imidazol-7-ol]
17 | ≥ 9.30 | 7.92 | – | Cc1[nH]ncc1-c1cnc(N)c2nc(-c3cccc(C#C[C@]4(O)CCN(C)C4=O)c3)ncc12 [Example 127, (R)-3-[2-[3-[8-Amino-5-(5-methyl-1H-pyrazol-4-yl)pyrido[3,4-d]pyrimidin-2-yl]phenyl]ethynyl]-3-hydroxy-1-methyl-pyrrolidin-2-one]
18 | 9.22 | 7.55 | – | CN1CC[C@@](O)(C#Cc2cccc(-c3ncc4c(C(=O)Oc5ccccc5)cnc(N)c4n3)c2)C1=O [Example 128, (R)-Phenyl 8-amino-2-[3-[2-(3-hydroxy-1-methyl-2-oxo-pyrrolidin-3-yl)ethynyl]phenyl]pyrido[3,4-d]pyrimidine-5-carboxylate]
19 | 8.92 | 7.00 | – | CN1CC[C@@](O)(C#Cc2cccc(-c3ccc4nc(N)nc(N)c4n3)c2)C1=O [Example 203, (R)-3-((3-(2,4-Diaminopyrido[3,2-d]pyrimidin-6-yl)phenyl)ethynyl)-3-hydroxy-1-methylpyrrolidin-2-one]
20 | ≥ 9.30 | 8.38 | – | CN1CC[C@@](O)(C#Cc2cccc(-c3ncc4c(Br)cnc(N)c4n3)c2)C1=O [Example 94, (R)-3-((3-(8-Amino-5-bromopyrido[3,4-d]pyrimidin-2-yl)phenyl)ethynyl)-3-hydroxy-1-methylpyrrolidin-2-one]
21 | 8.54 | 7.66 | – | COc1ccc(C#C[C@]2(O)CCN(C)C2=O)cc1-c1ccc2ncnc(N)c2n1 [Example 139, (R)-3-((3-(4-Aminopyrido[3,2-d]pyrimidin-6-yl)-4-methoxyphenyl)ethynyl)-3-hydroxy-1-methylpyrrolidin-2-one]
22 | 8.92 | 7.13 | – | Cc1nc(N)c2nc(-c3cc(C#C[C@]4(O)CCN(C)C4=O)ccc3C)sc2n1 [Example 182, (R)-3-[2-[3-(7-Amino-5-methyl-thiazolo[5,4-d]pyrimidin-2-yl)-4-methyl-phenyl]ethynyl]-3-hydroxy-1-methyl-pyrrolidin-2-one]
23 | ≥ 9.30 | 7.74 | – | Cc1nc(N)c2nc(-c3cccc(C#C[C@]4(O)CCN(C)C4=O)c3)ncc2n1 [Example 14, (R)-3-((3-(8-Amino-6-methylpyrimido[5,4-d]pyrimidin-2-yl)phenyl)ethynyl)-3-hydroxy-1-methylpyrrolidin-2-one]
24 | ≥ 9.30 | 7.66 | – | Cc1cnc(N)c2nc(-c3cccc(C#C[C@]4(O)CCc5cccnc54)c3)ncc12 [Example 62, (R)-7-((3-(8-Amino-5-methylpyrido[3,4-d]pyrimidin-2-yl)phenyl)ethynyl)-6,7-dihydro-5H-cyclopenta[b]pyridin-7-ol]
25 | 5.37 | – | < 5.30 | [2H]C([2H])([2H])N1CC[C@@](O)(C#Cc2ccc(C)c(-c3ccc4ccnc(N)c4c3)c2)C1=O (single isomer, unassigned) [Example 71]
26 | 9.00 | 6.82 | – | Cc1ccc(C#C[C@@](C)(O)c2nccs2)cc1-c1ncc2ccnc(N)c2n1 [Example 69, (R)-4-(3-(8-Aminopyrido[3,4-d]pyrimidin-2-yl)-4-methylphenyl)-2-(thiazol-2-yl)but-3-yn-2-ol]
27 | 7.80 | 5.61 | – | CN1CC[C@@](O)(C#Cc2cccc(-c3cc4c(N)ncnc4s3)c2)C1=O [Example 141, (R)-3-((3-(4-Aminothieno[2,3-d]pyrimidin-6-yl)phenyl)ethynyl)-3-hydroxy-1-methylpyrrolidin-2-one]
28 | ≥ 9.30 | 8.40 | – | CN1CC[C@@](O)(C#Cc2cccc(-c3ncc4c(-c5cnn(CC(C)(C)O)c5)cnc(N)c4n3)c2)C1=O [Example 123, (R)-3-[2-[3-[8-Amino-5-[1-(2-hydroxy-2-methyl-propyl)pyrazol-4-yl]pyrido[3,4-d]pyrimidin-2-yl]phenyl]ethynyl]-3-hydroxy-1-methyl-pyrrolidin-2-one]
29 | 9.10 | 7.55 | – | Cc1cc([C@](C)(O)C#Cc2cccc(-c3ccc4ncnc(N)c4n3)c2)no1 [Example 95, (R)-4-(3-(4-Aminopyrido[3,2-d]pyrimidin-6-yl)phenyl)-2-(5-methylisoxazol-3-yl)but-3-yn-2-ol]
